Measured values from patent US12012392B2, “Sulfonamide carboxamide compounds” (Inflazome Limited, priority 2017, dated 2024).
pIC50: −log10 of the molar value.

Tests used:
[1] = target: T1, NLRP3 (Homo sapiens, UniProt Q96P20); assay: THP-1 cells pyroptosis assay; type: cell-based; set-up: Seed THP-1 cells (25,000 cells/well) containing 1.0 μg/ml LPS; host or cells: THP-1 cells, LPS-primed, nigericin-stimulated; conditions: LPS 1 μg/ml, nigericin 5 μM, resazurin read-out
Method: THP-1 cells (ATCC #TIB-202) were grown in RPMI containing L-glutamine (Gibco #11835) supplemented with 1 mM sodium pyruvate (Sigma #S8636) and penicillin (100 units/ml)/streptomycin (0.1 mg/ml) (Sigma #P4333) in 10% Fetal Bovine Serum (FBS) (Sigma #F0804). The cells were routinely passaged and grown to confluency (˜10^6 cells/ml). On the day of the experiment, THP-1 cells were harvested and resuspended into RPMI medium (without FBS). The cells were then counted and viability (>90%) checked by Trypan blue (Sigma #T8154). Appropriate dilutions were made to give a concentration of 625,000 cells/ml. To this diluted cell solution was added LPS (Sigma #L4524) to give a 1 μg/ml Final Assay Concentration (FAC). 40 μl of the final preparation was aliquoted into each well of a 96-well plate. The plate thus prepared was used for compound screening.
The following method step-by-step assay was followed for compound screening. • 1. Seed THP-1 cells (25,000 cells/well) containing 1.0 μg/ml LPS in 40 μl of RPMI medium (without FBS) in 96-well, black walled, clear bottom cell culture plates coated with poly-D-lysine (VWR #734-0317) • 2. Add 5 μl compound (8 points half-log dilution, with 10 μM top dose) or vehicle (DMSO 0.1% FAC) to the appropriate wells • 3. Incubate for 3 hrs at 37° C. and 5% CO2 • 4. Add 5 μl nigericin (Sigma #N7143) (FAC 5 μM) to all wells • 5. Incubate for 1 hr at 37° C. and 5% CO2 • 6. At the end of the incubation period, spin plates at 300×g for 3 mins and remove supernatant • 7. Then add 50 μl of resazurin (Sigma #R7017) (FAC 100 μM resazurin in RPMI medium without FBS) and incubate plates for a further 1-2 hrs at 37° C. and 5% CO2 • 8. Plates were read in an Envision reader at Ex 560 nm and Em 590 nm • 9. IC50 data is fitted to a non-linear regression equation (log inhibitor vs response-variable slope 4-parameters) 96-Well Plate Map

[2] = target: T1, NLRP3; assay: Human whole blood IL1β release assay; type: cell-based; set-up: Plate out 80 μl of whole blood containing 1 μg/ml of LPS; from tissue; host or cells: human whole blood from healthy donors, LPS-primed, nigericin-stimulated; conditions: LPS 1 μg/ml, nigericin 10 μM, IL-1β AlphaLisa, read-out: HWB IC50
Method: For systemic delivery, the ability to inhibit NLRP3 when the compounds are present within the bloodstream is of great importance. For this reason, the NLRP3 inhibitory activity of a number of compounds in human whole blood was investigated in accordance with the following protocol.
Human whole blood in Li-heparin tubes was obtained from healthy donors from a volunteer donor panel. • 1. Plate out 80 μl of whole blood containing 1 μg/ml of LPS in 96-well, clear bottom cell culture plate (Corning #3585) • 2. Add […] compound (8 points half-log dilution with 10 μM top dose) or vehicle (DMSO 0.1% FAC) to the appropriate wells • 3. Incubate for 3 hrs at 37° C., 5% CO2 • 4. Add 10 μl Nigericin (Sigma #N7143) (10 μM FAC) to all wells • 5. Incubate for 1 hr at 37° C., 5 CO2 • 6. At the end of the incubation period, spin plates at 300×g for 5 mins to pellet cells and remove 20 μl of supernatant and add to 96-well v-bottom plates for […] analysis (note: these plates containing the supernatants can be stored at −80° C. to be analysed at a later date) • 7. IL-1β was measured according to the manufacturer protocol (Perkin Elmer-AlphaLisa IL-1 Kit AL220F-5000) • 8. IC50 data is fitted to anon-linear regression equation (log inhibitor vs response-variable slope 4-parameters)

T1 sequence (Q96P20 whole entry): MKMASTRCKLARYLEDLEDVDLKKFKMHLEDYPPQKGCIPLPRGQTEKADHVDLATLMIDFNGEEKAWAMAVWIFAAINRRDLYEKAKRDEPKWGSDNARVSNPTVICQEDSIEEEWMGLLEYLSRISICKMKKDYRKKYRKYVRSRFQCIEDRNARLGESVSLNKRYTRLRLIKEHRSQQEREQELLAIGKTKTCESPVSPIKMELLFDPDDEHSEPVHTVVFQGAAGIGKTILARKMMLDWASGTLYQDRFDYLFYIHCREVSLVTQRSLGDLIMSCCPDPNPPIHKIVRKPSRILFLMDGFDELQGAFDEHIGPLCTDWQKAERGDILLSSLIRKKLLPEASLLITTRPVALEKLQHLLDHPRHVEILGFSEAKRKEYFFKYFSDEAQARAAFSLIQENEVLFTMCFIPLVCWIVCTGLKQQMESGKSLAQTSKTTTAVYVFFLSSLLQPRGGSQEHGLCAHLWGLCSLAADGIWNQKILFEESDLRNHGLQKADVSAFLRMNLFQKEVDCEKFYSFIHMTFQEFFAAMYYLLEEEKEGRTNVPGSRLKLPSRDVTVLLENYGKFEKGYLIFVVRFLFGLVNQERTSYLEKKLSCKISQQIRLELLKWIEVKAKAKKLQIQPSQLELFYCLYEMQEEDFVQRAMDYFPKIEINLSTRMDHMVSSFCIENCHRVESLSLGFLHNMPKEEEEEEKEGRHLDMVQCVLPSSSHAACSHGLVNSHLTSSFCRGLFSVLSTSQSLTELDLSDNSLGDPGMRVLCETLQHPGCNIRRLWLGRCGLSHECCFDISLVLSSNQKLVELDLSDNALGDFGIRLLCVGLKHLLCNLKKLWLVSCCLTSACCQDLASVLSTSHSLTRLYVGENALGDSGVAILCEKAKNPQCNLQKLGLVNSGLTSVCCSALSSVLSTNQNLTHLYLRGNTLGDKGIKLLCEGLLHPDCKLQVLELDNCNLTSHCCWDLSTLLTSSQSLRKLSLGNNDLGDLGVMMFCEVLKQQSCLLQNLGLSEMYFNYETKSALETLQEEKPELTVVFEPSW

SMILES | pIC50 [1] | pIC50 [2]
O=C(Nc1c2c(cc3c1CCC3)CCC2)NS(=O)(=O)c1ccn(C2CC(O)C2)n1 (stereo not shown) [Example 34, N-((1,2,3,5,6,7-Hexahydro-s-indacen-4-yl)carbamoyl)-1-(3-hydroxycyclobutyl)-1H-pyrazole-3-sulfonamide] | 6.19 to 6.80 | 5.80 to 6.10
CC(C)c1cc(F)cc(-c2cccnc2)c1NC(=O)NS(=O)(=O)c1ccn(C[C@@H](C)O)n1 [Example 37, (R)—N-((4-Fluoro-2-isopropyl-6-(pyridin-3-yl)phenyl)carbamoyl)-1-(2-hydroxypropyl)-1H-pyrazole-3-sulfonamide] | 6.19 to 6.80 | > 6.40
CN(CCCO)C(=O)c1cc(S(=O)(=O)NC(=O)Nc2c3c(cc4c2CCC4)CCC3)nn1C [Example 64, 3-(N-((1,2,3,5,6,7-Hexahydro-s-indacen-4-yl)carbamoyl)sulfamoyl)-N-(3-hydroxypropyl)-N,1-dimethyl-1H-pyrazole-5-carboxamide] | 6.19 to 6.80 | 5.49 to 5.80
Cn1nc(S(=O)(=O)NC(=O)Nc2c3c(cc4c2CCC4)CCC3)cc1C1(F)COC1 [Example 49, 5-(3-Fluorooxetan-3-yl)-N-((1,2,3,5,6,7-hexahydro-s-indacen-4-yl)carbamoyl)-1-methyl-1H-pyrazole-3-sulfonamide] | 6.19 to 6.80 | 5.80 to 6.10
O=C(Nc1c2c(cc3c1CCC3)CCC2)NS(=O)(=O)c1ccn(C[C@@H](O)CO)n1 [Example 104] | 6.19 to 6.80 | 5.80 to 6.10
COC1(c2cc(S(=O)(=O)NC(=O)Nc3c(-c4cccnc4)cc(F)c4c3CCC4)nn2C)COC1 [Example 35, N-((7-Fluoro-5-(pyridin-3-yl)-2,3-dihydro-1H-inden-4-yl)carbamoyl)-5-(3-methoxyoxetan-3-yl)-1-methyl-1H-pyrazole-3-sulfonamide] | 6.19 to 6.80 | 5.80 to 6.10
CC(C)c1cc(Cl)cc(C(C)C)c1NC(=O)NS(=O)(=O)c1ccn(C2CCOCC2)n1 [Example 32, N-((4-Chloro-2,6-diisopropylphenyl)carbamoyl)-1-(tetrahydro-2H-pyran-4-yl)-1H-pyrazole-3-sulfonamide] | 5.59 to 6.19 | 5.00 to 5.49
COc1cc(-c2cc(F)cc(C(C)C)c2NC(=O)NS(=O)(=O)c2cc(C3(OC)COC3)n(C)n2)ccn1 [Example 40, N-((4-Fluoro-2-isopropyl-6-(2-methoxypyridin-4-yl)phenyl)carbamoyl)-5-(3-methoxyoxetan-3-yl)-1-methyl-1H-pyrazole-3-sulfonamide] | 6.19 to 6.80 | > 6.40
O=C(Nc1c2c(cc3c1CCC3)CCC2)NS(=O)(=O)c1ccn(CCO)n1 [Example 8, N-((1,2,3,5,6,7-Hexahydro-s-indacen-4-yl)carbamoyl)-1-(2-hydroxyethyl)-1H-pyrazole-3-sulfonamide] | 6.80 to 7.40 | > 6.40
CC(C)(CO)n1ccc(S(=O)(=O)NC(=O)Nc2c3c(cc4c2CCC4)CCC3)n1 [Example 20, N-((1,2,3,5,6,7-Hexahydro-s-indacen-4-yl)carbamoyl)-1-(1-hydroxy-2-methylpropan-2-yl)-1H-pyrazole-3-sulfonamide] | 6.80 to 7.40 | 5.80 to 6.10
O=C(Nc1c2c(cc3c1CCC3)CCC2)NS(=O)(=O)c1ccn(CC(O)C(F)(F)F)n1 (stereo not shown) [Example 30, N-((1,2,3,5,6,7-Hexahydro-s-indacen-4-yl)carbamoyl)-1-(3,3,3-trifluoro-2-hydroxypropyl)-1H-pyrazole-3-sulfonamide] | 6.80 to 7.40 | 5.80 to 6.10
O=C(Nc1c2c(cc3c1CCC3)CCC2)NS(=O)(=O)c1ccn(C2CCOCC2)n1 [Example 31, N-((1,2,3,5,6,7-Hexahydro-s-indacen-4-yl)carbamoyl)-1-(tetrahydro-2H-pyran-4-yl)-1H-pyrazole-3-sulfonamide] | 6.19 to 6.80 | 5.49 to 5.80
C[C@@H](O)Cn1ncc(S(=O)(=O)NC(=O)Nc2c3c(cc4c2CCC4)CCC3)n1 [Example 33, (R)—N-((1,2,3,5,6,7-Hexahydro-s-indacen-4-yl)carbamoyl)-2-(2-hydroxypropyl)-2H-1,2,3-triazole-4-sulfonamide] | 6.19 to 6.80 | 5.80 to 6.10

The next lines start with the values.

pIC50 [1] | pIC50 [2] | SMILES
6.80 to 7.40 | 5.80 to 6.10 | O=C(Nc1c2c(cc3c1CCC3)CCC2)NS(=O)(=O)c1ccn(CC2CCCO2)n1 (single isomer, unassigned) [Example 5]
6.80 to 7.40 | 6.10 to 6.40 | CC(C)n1nc(S(=O)(=O)NC(=O)Nc2c3c(cc4c2CCC4)CCC3)cc1C1(O)COC1 [Example 47, N-((1,2,3,5,6,7-Hexahydro-s-indacen-4-yl)carbamoyl)-5-(3-hydroxyoxetan-3-yl)-1-isopropyl-1H-pyrazole-3-sulfonamide]
6.80 to 7.40 | 5.80 to 6.10 | Cn1nc(S(=O)(=O)NC(=O)Nc2c3c(cc4c2CCC4)CCC3)cc1CC(C)(C)O [Example 50, N-((1,2,3,5,6,7-Hexahydro-s-indacen-4-yl)carbamoyl)-5-(2-hydroxy-2-methylpropyl)-1-methyl-1H-pyrazole-3-sulfonamide]
6.80 to 7.40 | 5.80 to 6.10 | C[C@@H](CO)n1ccc(S(=O)(=O)NC(=O)Nc2c3c(cc4c2CCC4)CCC3)n1 [Example 15, (S)—N-((1,2,3,5,6,7-Hexahydro-s-indacen-4-yl)carbamoyl)-1-(1-hydroxypropan-2-yl)-1H-pyrazole-3-sulfonamide]
> 7.40 | > 6.40 | COc1cc(-c2ccc3c(c2NC(=O)NS(=O)(=O)c2cc(C4(OC)COC4)n(C)n2)CCC3)ccn1 [Example 98]
> 7.40 | 6.10 to 6.40 | CC(C)(O)Cn1ccc(S(=O)(=O)NC(=O)Nc2c3c(c(F)c4c2CCC4)CCC3)n1 [Example 106]
6.80 to 7.40 | 6.10 to 6.40 | O=C(Nc1c2c(cc3c1CCC3)CCC2)NS(=O)(=O)c1ccn(C2CCCC2O)n1 (racemic) [Example 22, N-((1,2,3,5,6,7-Hexahydro-s-indacen-4-yl)carbamoyl)-1-(2-hydroxycyclopentyl)-1H-pyrazole-1-sulfonamide]
